Patent US4182897A, “Amino- or guanidino-phenylpropionic acid derivatives” (Torii & Co., Ltd., priority 1977, dated 1980)
Counter-ions that a name gives are not always drawn.

Key:
proteolytic enzymes = conditions: prior art; cited from earlier work
Human Plasma Kallikrein = Human Plasma Kallikrein (Homo sapiens, UniProt P03952); test: Inhibitory effect on ester-hydrolyzing activity of human plasma kallikrein (TAMe substrate); format: biochemical; conditions: read-out: percent inhibition at 10^-3 M (kallikrein)
Experimental: (A) Determination of Enzyme-inhibitory Activity: The enzyme-inhibitory activities in vitro of the compounds of this invention were measured by the following procedure according to the method of M. Muramatsu et al. [[…]. Makino, Y. Hayashi and S. Fujii: J.

[1] = test system: collagen induced platelet aggregation of rabbit PRP; test: Inhibition of collagen induced platelet aggregation of rabbit PRP; format: cell-based; conditions: Oryctolagus cuniculus; for inhibition at 10 µg/mL: 10.0 μg/ml; for inhibition at 5 µg/mL: 5.0 μg/ml
Experimental: (B) Determination of Inhibitory Activity on Collagen Induced Platelet Aggregation:
According to the method of Born et al. [Born, G. V. R.: J. Physiol., 168. 178 (1963)], the platelet aggregation inhibition (%) was determined at various concentrations of compounds by the following procedure:
Rabbit PRP (platelet rich plasma), 0.9 ml, obtained from sodium citrate-added blood, was taken into a polyethylene tube and incubated at 37° C. for 1 minute, and then 10 μl of a compound solution or physiological saline as control, was added.
Subsequently, 0.1 ml of collagen solution was added, and change in absorbance of PRP, resulting from the progress of platelet aggregation, was determined by means of platelet aggregation meter and recorded.
Percent inhibition was calculated according to the following equation: [formula]

Trypsin = target: T1, Trypsin (Bos taurus, UniProt P00760); test: Inhibitory effect on ester-hydrolyzing activity of trypsin (TAMe substrate); format: biochemical; conditions: for inhibition at 1000 µM: read-out: percent inhibition at 10^-3 M (trypsin)
T1 sequence (P00760 24-246): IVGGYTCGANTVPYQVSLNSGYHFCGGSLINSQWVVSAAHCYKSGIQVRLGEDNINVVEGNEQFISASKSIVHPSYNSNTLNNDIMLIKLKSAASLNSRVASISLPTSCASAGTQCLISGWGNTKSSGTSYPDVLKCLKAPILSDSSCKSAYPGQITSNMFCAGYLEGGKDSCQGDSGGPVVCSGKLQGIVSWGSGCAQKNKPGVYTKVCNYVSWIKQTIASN
Experimental: (A) Determination of Enzyme-inhibitory Activity: The enzyme-inhibitory activities in vitro of the compounds of this invention were measured by the following procedure according to the method of M. Muramatsu et al. [[…]. Makino, Y. Hayashi and S. Fujii: J. […] Then, 10 μmoles of the substrate, TAMe (tosylarginine methyl ester), was added, and incubation was performed at 37° C. for 30 minutes. After the incubation, 1.5 ml of 2 M alkaline hydroxylamine was added and thoroughly mixed, and allowed to stand at room temperature for 15 minutes.

Bovine Thrombin = Bovine Thrombin (Bos taurus, UniProt P00735); test: Inhibitory effect on ester-hydrolyzing activity of bovine thrombin (TAMe substrate); format: biochemical; conditions: for inhibition at 1000 µM: read-out: percent inhibition at 10^-3 M (thrombin)
Experimental: (4) Inhibitory Effect on Ester-Hydrolyzing Activity of Bovine Thrombin
It was measured by using 0.4 ml of bovine thrombin […], 0.02 M sodium phosphate buffer solution (pH 7.4) and TAMe as substrate following the method described in (1).

Human Plasmin = Human Plasmin (Homo sapiens, UniProt P00747); test: Inhibitory effect on ester-hydrolyzing activity of human plasmin (TAMe substrate); format: biochemical; conditions: read-out: percent inhibition at 10^-3 M (plasmin)
Experimental: (A) Determination of Enzyme-inhibitory Activity: The enzyme-inhibitory activities in vitro of the compounds of this invention were measured by the following procedure according to the method of M. Muramatsu et al. [[…]. Makino, Y. Hayashi and S. Fujii: J. […] (2) Inhibitory Effect on Ester-hydrolyzing Activity of Human Plasmin It was measured by using 0.1 ml of plasmin (generated by activation of plasminogen with streptokinase) and TAMe as substrate following the method described in (1).

Human Cl Esterase = target: T2, Human Cl Esterase (Homo sapiens, UniProt P09871); test: Inhibitory effect on ester-hydrolyzing activity of human Cl esterase (ATEe substrate); format: biochemical; conditions: for inhibition at 1000 µM: read-out: percent inhibition at 10^-3 M (Cl esterase)
T2 sequence (P09871 438-688 limits assumed): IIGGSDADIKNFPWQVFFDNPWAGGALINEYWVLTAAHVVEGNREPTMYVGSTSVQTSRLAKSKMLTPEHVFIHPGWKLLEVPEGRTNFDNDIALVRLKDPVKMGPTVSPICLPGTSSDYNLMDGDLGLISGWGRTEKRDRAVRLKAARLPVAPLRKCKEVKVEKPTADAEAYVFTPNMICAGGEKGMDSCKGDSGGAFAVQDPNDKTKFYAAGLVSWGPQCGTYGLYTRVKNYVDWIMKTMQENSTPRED
T2 sequence (P09871 16-437 partner limits assumed): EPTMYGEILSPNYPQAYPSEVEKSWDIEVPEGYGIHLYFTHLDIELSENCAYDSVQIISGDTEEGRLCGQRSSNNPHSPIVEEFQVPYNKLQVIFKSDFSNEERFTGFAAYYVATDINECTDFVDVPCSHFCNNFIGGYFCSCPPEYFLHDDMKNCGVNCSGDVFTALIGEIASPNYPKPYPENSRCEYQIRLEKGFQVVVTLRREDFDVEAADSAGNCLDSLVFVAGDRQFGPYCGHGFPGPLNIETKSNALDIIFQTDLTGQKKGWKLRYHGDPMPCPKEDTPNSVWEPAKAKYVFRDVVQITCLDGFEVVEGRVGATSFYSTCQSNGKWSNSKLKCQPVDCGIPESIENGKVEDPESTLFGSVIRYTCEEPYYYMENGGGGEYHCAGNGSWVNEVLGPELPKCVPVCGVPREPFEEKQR
Experimental: It was measured by using 0.1 ml of Cl esterase, 0.1 ml of 0.02 M sodium phosphate buffer solution (pH 7.4) and 10 μmoles of ATEe (acetyltyrosine ethyl ester) as substrate following the method described in (1).

[2] = Acute toxicity by intraperitoneal administration in mice; conditions: mouse, in vivo, ip, read-out: DL50 (acute toxicity)
[3] = test system: complement-dependent hemolysis of sensitized erythrocytes; test: Antihemolytic activity (prevention of complement-dependent hemolysis); format: cell-based; conditions: Erythrocyte, 10 min
Experimental: (C) Determination of Antihemolytic Activity: Preventions of the complement-dependent hemolysis by the compounds of this invention were measured according to the method of B. R. Baker et al. [J. Med. Chem., 12, 408-414 (1969)] by the following procedure: […] The mixture was incubated at 37° C. for 10 minutes. The reaction was stopped by adding 2.7 ml of an ice-cold citrate-saline solution, and the resulting mixture was centrifuged at 3000 rpm for 3 minutes. Absorbance of the supernatant was measured at 541 nm. As the standard, GVB^2+ (gelatin veronal buffer) was substituted for the sample solution and, as the control, GVB^2+ was substituted for the complement.

Rat Masugi Nephritis = test: Effect on rat Masugi nephritis (urinary protein); format: in vivo, Sprague-Dawley rats
Experimental: (D) Effect on Masugi Nephritis: The effect of Compound No. 73 on Masugi nephritis was investigated according to the method of Shibata et al. [S. Shibata: Men-ekigaku, Arerugi-gaku Jikkenho (Immunology, Experimental Methods in Allergology), p. 664, (1971), Bunkodo, Tokyo]. Male sprague-Dawley rats weighing about 200 g were divided into normal group, diseased group and treated group, each consisting of 7 rats. For the purpose of inducing nephritis, 0.5 ml of anti- "rat nephritis" rabbit serum, which had been prepared according to the method of Shibata et al., was administered intravenously to rats of both diseased and treated groups. To the normal group was intravenously administered the same quantity of physiological saline. The test drug was administered intraperitoneally to rats of the treated group three times, namely two days prior to, one day prior to and on the day of administration of the antiserum. From the rats of each group, a 24 hours urine specimen was collected on the day preceding, and the 1st, 2nd, 5th, 8th and 13th days following the administration of the antiserum. Protein contents of the urine specimen were determined by the sulfosalicylic acid method.

Chain of Human Plasmin (P00747 581-810 limits assumed): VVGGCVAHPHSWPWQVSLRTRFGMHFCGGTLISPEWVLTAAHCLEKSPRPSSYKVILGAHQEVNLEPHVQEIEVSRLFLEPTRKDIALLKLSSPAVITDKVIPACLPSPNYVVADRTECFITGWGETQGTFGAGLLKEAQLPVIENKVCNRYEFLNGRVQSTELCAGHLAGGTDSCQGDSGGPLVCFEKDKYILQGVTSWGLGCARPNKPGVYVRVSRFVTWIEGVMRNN
Chain of Human Plasmin (P00747 97-580 partner limits assumed): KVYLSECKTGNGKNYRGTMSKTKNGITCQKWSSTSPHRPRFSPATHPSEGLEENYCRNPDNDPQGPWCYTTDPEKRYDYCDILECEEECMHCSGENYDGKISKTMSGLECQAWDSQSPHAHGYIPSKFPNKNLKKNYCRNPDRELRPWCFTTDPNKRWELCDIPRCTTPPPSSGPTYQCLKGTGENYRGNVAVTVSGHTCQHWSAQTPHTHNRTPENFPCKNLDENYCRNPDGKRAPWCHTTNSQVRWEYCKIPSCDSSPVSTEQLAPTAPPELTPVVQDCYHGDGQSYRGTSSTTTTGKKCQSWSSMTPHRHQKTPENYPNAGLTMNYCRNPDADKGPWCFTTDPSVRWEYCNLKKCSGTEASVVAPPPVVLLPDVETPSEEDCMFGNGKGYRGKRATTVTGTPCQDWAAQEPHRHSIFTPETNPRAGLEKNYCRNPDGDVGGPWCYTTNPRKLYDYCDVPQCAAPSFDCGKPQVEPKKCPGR
Chain of Human Plasma Kallikrein (P03952 391-638 limits assumed): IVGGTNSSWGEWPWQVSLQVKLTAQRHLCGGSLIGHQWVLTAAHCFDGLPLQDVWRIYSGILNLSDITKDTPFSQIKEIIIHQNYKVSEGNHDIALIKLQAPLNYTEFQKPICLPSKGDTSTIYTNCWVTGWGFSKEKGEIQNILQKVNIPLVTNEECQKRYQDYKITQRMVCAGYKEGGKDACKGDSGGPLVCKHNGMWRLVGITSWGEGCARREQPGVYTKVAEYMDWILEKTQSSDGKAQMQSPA
Chain of Human Plasma Kallikrein (P03952 20-390 partner limits assumed): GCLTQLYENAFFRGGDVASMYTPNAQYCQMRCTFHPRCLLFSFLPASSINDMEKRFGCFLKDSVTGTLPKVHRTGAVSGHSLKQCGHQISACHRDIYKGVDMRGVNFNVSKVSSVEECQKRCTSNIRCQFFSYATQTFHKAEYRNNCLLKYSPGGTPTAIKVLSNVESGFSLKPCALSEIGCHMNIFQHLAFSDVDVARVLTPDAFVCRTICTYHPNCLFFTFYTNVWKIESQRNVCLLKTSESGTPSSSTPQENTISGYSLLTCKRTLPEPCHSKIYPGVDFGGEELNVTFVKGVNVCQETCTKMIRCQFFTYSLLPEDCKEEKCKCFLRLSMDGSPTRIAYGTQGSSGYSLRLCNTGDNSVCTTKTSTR

Row | SMILES | inhibitory activity to proteolytic enzymes (proteolytic enzymes) | specificity of enzyme inhibition (proteolytic enzymes) | inhibition at 1000 µM (Human Plasma Kallikrein) [%] | inhibition at 10 µg/mL [1] [%] | inhibition at 1000 µM (Trypsin) [%] | inhibition at 1000 µM (Human Plasmin) [%] | inhibition at 1000 µM (Human Cl Esterase) [%] | inhibition at 5 µg/mL [1] [%] | inhibition at 1000 µM (Bovine Thrombin) [%] | further results
1 | N=C(N)c1ccc(CC(=O)C(=O)O)cc1 [4-amidinophenylpyruvic acid] | inhibitory activity to proteolytic enzymes | low in specificity | – | – | – | – | – | – | – | –
2 | Cc1ccc(OC(=O)CCc2ccc(N)cc2)cc1 [Compound No. 1, p-Methylphenyl β-(p-aminophenyl)-propionate hydrochloride] | – | – | < 10 | 42 | < 10 | < 10 | < 10 | – | – | IC50 (Bovine Thrombin): 880 µM
3 | CCC(Cc1cccc(N)c1)C(=O)Oc1cccc2ccccc12 (stereo not drawn) [Compound No. 7, 1-naphthyl α-ethyl-β-(m-aminophenyl)-propionate] | – | – | – | 100 | – | < 10 | 11.7 | 84 | < 10 | inhibition at 2.5 µg/mL ([1]; 2.5 μg/ml): 37%; IC50 (Trypsin; in vitro, tosylarginine methyl ester hydrolysis, read-out: ID50 (trypsin)): 10 µM
4 | CCC(Cc1ccc(NC(=N)N)cc1)C(=O)Oc1ccccc1 (stereo not drawn) [Compound No. 73, phenyl α-ethylβ-(p-guanidinophenyl)-propionate] | – | – | 31.5 | – | 43.9 | < 10 | – | – | < 10 | LD50 [2]: 129 mg/kg; inhibition at 1000 µM ([3]; 10^-3 M): 69.1%; inhibition at 100 µM ([3]; 10^-4 M): 30%; IC50 (Human Cl Esterase; in vitro, acetyltyrosine ethyl ester hydrolysis, read-out: ID50 (Cl esterase)): 310 µM; Protein in urine (Rat Masugi Nephritis; 12.5 mg/kg i.p. x3, day 1 after antiserum): 34.0 mg/day; Protein in urine (Rat Masugi Nephritis; 12.5 mg/kg i.p. x3, day 2 after antiserum): 42.5 mg/day; Protein in urine (Rat Masugi Nephritis; 12.5 mg/kg i.p. x3, day 5 after antiserum): 45.6 mg/day; Protein in urine (Rat Masugi Nephritis; 12.5 mg/kg i.p. x3, day 8 after antiserum): 76.3 mg/day; Protein in urine (Rat Masugi Nephritis; 12.5 mg/kg i.p. x3, day 13 after antiserum): 115.5 mg/day; Protein in urine (Rat Masugi Nephritis; 12.5 mg/kg i.p. x3, day -1): 6.0 mg/day; Protein in urine (Rat Masugi Nephritis; 25.0 mg/kg i.p. x3, day 1 after antiserum): 41.1 mg/day; Protein in urine (Rat Masugi Nephritis; 25.0 mg/kg i.p. x3, day 2 after antiserum): 33.9 mg/day; Protein in urine (Rat Masugi Nephritis; 25.0 mg/kg i.p. x3, day 5 after antiserum): 39.4 mg/day; Protein in urine (Rat Masugi Nephritis; 25.0 mg/kg i.p. x3, day 8 after antiserum): 63.3 mg/day; Protein in urine (Rat Masugi Nephritis; 25.0 mg/kg i.p. x3, day 13 after antiserum): 71.5 mg/day; Protein in urine (Rat Masugi Nephritis; 25.0 mg/kg i.p. x3, day -1): 4.2 mg/day
5 | CCOC(=O)c1ccc(OC(=O)CCCCCNC(=N)N)cc1.CS(=O)(=O)O [FOY, ethyl p-(6-guanidinohexanoyloxy)benzoate methanesulfonate] | inhibitory activity to proteolytic enzymes | low in specificity | – | – | – | – | – | – | – | –
6 | CC(=O)Oc1ccccc1C(=O)O [aspirin, reference compound] | – | – | – | 100 | – | – | – | 78 | – | –
